Results published in patent US5096911A, “Alteration of rate and character of hair growth” (priority 1990, dated 1992).
One block for each compound: values may come before it.

Assays:
Hamster flank organ hair = assay: Inhibition of hair growth: hamster flank organ hair mass after topical application; type: in vivo, male intact Golden Syrian hamsters; details: three weeks; for Percent Inhibition (of hair mass vs vehicle-treated organ) / Hamster Flank Organ Hair Mass, Treated (mean): once a day, five days a week
From the text: Acivicin (Sigma Chemical Co., St. Louis) was mixed with separate portions of the foregoing vehicle to provide specimens containing 1,2, and 6% by weight respectively of the inhibitor and the pH was adjusted to pH 7.5 with sodium hydroxide.
Four groups (eight animals in each group) of male intact Golden Syrian hamsters were provided. These animals were considered acceptable models for human beard hair growth in that they display oval shaped flank organs, one on each side, each about 8 mm. in major diameter, which grow thick black and coarse hair similar to human beard hair. These organs produce hair in response to androgens in the hamster. The flank organs of each hamster were depilated by applying a thioglycolate- based chemical depilatory (Surgex), and to one organ of each animal was applied 10-25 mg. of vehicle alone once a day, while to the other organ of each animal was applied an equal amount of vehicle containing inhibitor. After three weeks of such applications (five days a week), the flank organs were shaved and the amount of recovered hair (hair mass) from each was weighed. The extent of reduction in hair growth by the inhibitor was expressed as the percent decrease in hair mass on the organ treated with inhibitor as compared to the organ treated with vehicle alone. As a control, one group of eight animals had both flank organs of each animal treated with vehicle alone.
A composition was prepared containing 5% by weight of bromsulphalein disodium in the vehicle described in Example I above, and applied to hamster flank organs under the same conditions as described in Example 1.
The anthglutin prepared as described above was dissolved in specimens of the vehicle described in Example 1 and applied to the flank organs of groups of hamsters in the same manner as described in Example 1, a group of eight animals being used for each different composition.

follicle enzyme = assay: Inhibition of follicle enzyme activity after topical treatment over three weeks; type: in vivo, Golden Syrian hamsters; details: 6% solution, three week period
[1] = system: hair follicle gamma-glutamyl transpeptidase; assay: Inhibition of hair follicle gamma-glutamyl transpeptidase activity; type: biochemical
[2] = system: gamma-glutamyl transpeptidase; details: Japanese Patent No. 53-127,432; Minato, Archives Biochem. Biophy., Vol. 192, 235-240 (1979); cited from earlier work

SMILES: N[C@H](C(=O)O)[C@@H]1CC(Cl)=NO1 [Acivicin, (alpha S,5S)-amino-3-chloro-4,5-dihydro-isoxazole acetic acid]
Percent Inhibition (of hair mass vs vehicle-treated organ) (Hamster flank organ hair; acivicin 1.0%, topical): 18.2% | Hamster Flank Organ Hair Mass, Treated (mean) (Hamster flank organ hair; acivicin 1.0%, topical, contralateral vehicle organ 1.04 mg): 0.85 mg | Percent Inhibition (of hair mass vs vehicle-treated organ) (Hamster flank organ hair; acivicin 2.0%, topical): 57.9% | Hamster Flank Organ Hair Mass, Treated (mean) (Hamster flank organ hair; acivicin 2.0%, topical, contralateral vehicle organ 1.33 mg): 0.56 mg | Percent Inhibition (of hair mass vs vehicle-treated organ) (Hamster flank organ hair; acivicin 6.0%, topical): 81.0% | Hamster Flank Organ Hair Mass, Treated (mean) (Hamster flank organ hair; acivicin 6.0%, topical, contralateral vehicle organ 0.79 mg): 0.15 mg | character of hair on the treated organ vs untreated organ (Hamster flank organ hair; topical acivicin): more vellus in nature | inhibition of follicle enzyme activity (follicle enzyme): about 87%

inhibition of the activity / inhibitory affinity for hair follicle gamma-glutamyl transpeptidase [1]: strong inhibitory affinity
SMILES: N[C@@H](CCC(=O)NNc1ccccc1C(=O)O)C(=O)O [Anthglutin, 1-gamma-L-glutamyl-2 (2-carboxyphenyl)-hydrazine]
Percent Inhibition (of hair mass vs vehicle-treated organ) (Hamster flank organ hair; anthglutin 0.5%, topical): 10.7% | Hamster Flank Organ Hair Mass, Treated (mean) (Hamster flank organ hair; anthglutin 0.5%, topical, contralateral vehicle organ 2.03 mg): 1.81 mg | Percent Inhibition (of hair mass vs vehicle-treated organ) (Hamster flank organ hair; anthglutin 1.0%, topical): 16.7% | Hamster Flank Organ Hair Mass, Treated (mean) (Hamster flank organ hair; anthglutin 1.0%, topical, contralateral vehicle organ 1.92 mg): 1.60 mg | Percent Inhibition (of hair mass vs vehicle-treated organ) (Hamster flank organ hair; anthglutin 2.0%, topical): 38.6% | Hamster Flank Organ Hair Mass, Treated (mean) (Hamster flank organ hair; anthglutin 2.0%, topical, contralateral vehicle organ 2.57 mg): 1.58 mg | Percent Inhibition (of hair mass vs vehicle-treated organ) (Hamster flank organ hair; anthglutin 6.0%, topical): 67.2% | Hamster Flank Organ Hair Mass, Treated (mean) (Hamster flank organ hair; anthglutin 6.0%, topical, contralateral vehicle organ 2.26 mg): 0.74 mg | inhibition of gamma-glutamyl transpeptidase [2]: specific inhibitor of gamma-glutamyl transpeptidase

SMILES: O=C1OC(c2ccc(O)c(S(=O)(=O)O)c2)(c2ccc(O)c(S(=O)(=O)O)c2)c2c(Br)c(Br)c(Br)c(Br)c21 [bromsulphalein disodium, 5,5'-(4,5,6,7-tetrabromo-3-oxo-1(3H)-isobenzofuranylidene) bis[2-hydroxybenzenesulfonic acid]]
inhibition of hair mass (Hamster flank organ hair; 5% by weight bromsulphalein disodium, topical): 32%
